Like-named read-outs stand apart in the source and are kept apart here.
Legend:
[1] = test system: human cryopreserved hepatocytes; assay: Stability Assay in Cryopreserved Hepatocytes (human); format: in vitro ADME; details: 1 μM, calculated from half-life using the well-stirred model
Procedure: Test compound was incubated at 1 μM with either rat or human cryopreserved hepatocytes (BioIVT, Westbury, NY) up to 6 hours at 37° C. in a 24-well plate format (1×10^6 cells/mL per well). At specified time points, samples were transferred to a 96-well plate and quenched with 2 volumes of a solution containing 90% acetonitrile 10% methanol 0.1% formic acid and internal standard. Sample plate was centrifuged at 3200 rpm for 15 min and supernatants transferred to a new plate containing half volume of water. The resulting solution was analyzed by LC-MS/MS. Data (analyte to internal standard peak area ratio) was plotted on a semi-log scale and fitted using an exponential fit. Assuming first order kinetics, the half-life (t1/2) and rate of metabolism were determined. Predicted hepatic clearance was calculated from the half-life using the well-stirred model.

HSV-2 virus (MS strain) [2] = assay: HSV qPCR Assay (HSV replication in ARPE-19 cells); details: Human alphaherpesvirus 2, ARPE-19, read-out: EC50-HSV2-qPCR
Procedure: HSV replication in the presence or absence of compounds was measured by qPCR according to the following procedure: DMSO stock compound solutions (1-10 mM) were serially diluted (2.5-fold) in DMSO in clear round bottom 96-well plates. Compounds were then diluted 1:20 in assay medium (DMEM/F12 Glutamax+2% Fetal bovine serum+1% Penicillin Streptomycin) and 10 μL of these dilutions were added to 96-well tissue culture plates for final starting concentrations between 0.5 and 5 μM.
Cells were resuspended in assay medium, counted, and cell density was adjusted to 2.8E+05 cells/ml with assay medium. […] 90 μL of the infection suspension (25,000 cells) were added to assay plates in which compounds were already added. After an overnight incubation at 37° C., cell culture medium was removed, and cell lysis was performed using the prepGEM Universal kit (MicroGEM cat #PUN1000). Specifically, 100 μL of prepGEM master mix (94.75 μL Water, 5 μL buffer, 0.25 μL enzyme stock) were added to each well and plates were incubated at room temperature for 15 minutes, with the 5 last minutes on a plate shaker. The cell lysates were then transferred to a 96-well PCR compatible microplate (Applied Biosystems, Cat #N8010560). Plates were sealed with a heat resistant plastic sealer and heated on a thermal cycler using the following conditions: 75° C. for 10 min, 95° C. for 5 minutes. Finally, plates were cooled down to room temperature with light shaking before proceeding to the qPCR setup.
Plates were sealed with a clear sealer, spun down, and qPCR reactions were performed in an Applied Biosystems Quantstudio 7 Flex instrument using the following conditions: 95° C. for 2 minutes, then 40 cycles alternating between 95° C. for 5 seconds and 60° C. for 30 seconds.
Analysis was performed using dCT method where dCT=CT (test)−CT (DMSO). Fold change was calculated using the 2^^dCT equation. This fold change was then converted to percentage relative to DMSO control (no drug). EC50s were determined by non-linear regression analysis using GraphPad Prism software.

HSV-2 virus (MS strain) [3] = assay: HSV-2 Cellomics Assay (immunofluorescence of HSV protein gD in infected ARPE-19 cells); details: Human alphaherpesvirus 2, ARPE-19, 16 h
Procedure: Compounds were tested for their ability to inhibit HSV-2 replication by monitoring the expression of the HSV protein gD using a high-throughput immunofluorescence-based assay. 10-dose, 3-fold serial dilutions of compounds were prepared at starting concentrations of 0.2 or 2 mM in 100% DMSO. […] The final starting concentration in the assay was either 1 or 10 μM. DMSO (no compound) and pritelivir were included on each microplate as negative and positive controls, respectively.
Prior to confluence, cells were transferred to a centrifuge tube and spun for 5 minutes at 1000 rpm. Cells were resuspended in assay medium (DMEM/F-12 Glutamax, 2% FBS, 1% Penicillin-Streptomycin) and counted. Cell density was adjusted to 150,000 cells/ml and infected with HSV-2 virus (MS strain, ATCC cat #VR-540) at a MOI of 0.06 in a 50 ml conical tube for 1 hour under constant rocking. Cells were then spun for 5 minutes at 1000 rpm and the media replaced with assay medium containing either 2% FBS or 10% human serum (EMD Millipore cat #S1-100 ML). 50 μl of the infection suspension were added into microplate wells that were pre-spotted with compounds (7,500 cells per well). Plates were incubated for 16 hours at 37° C.
After a 30-minute incubation at room temperature, plates were washed 4 times with 100 μl/well of PBS using a Biotek plate washer. […] Plates were washed 4 times again and 50 μl of DPBS were added to all wells prior to sealing the plates with a black adhesive seal. Fluorescence was measured on a Cellomics plate reader.
Data analysis was carried out using the Thermo Scientific HCS Studio software. Briefly, cells were identified using the DAPI nuclear stain and thresholds were set to filter cells out based on shape and size. A second threshold based on green fluorescence intensity (detection of HSV-2 gD) was set to identify HSV-2 infected cells. Data was reported as the average fluorescence intensity of HSV-2 infected cells.

hCAII = hCAII (Homo sapiens (Human), UniProt P00918); assay: Carbonic Anhydrase (Esterase) Biochemical Assay, hCAII
Procedure: (§1) 10-dose, 3-fold serial dilutions of compounds were prepared at starting concentrations of 10 mM in 100% DMSO. […] Final starting concentration in the assay was 50 μM. DMSO (no compound) and acetazolamide were included on each microplate as negative and positive controls, respectively.
(§2) Following a preincubation at room temperature for 15 minutes, 20 μl of a 4 mM solution of 4NPA substrate (Sigma cat #N8130) in assay buffer were added to start the reaction.

[4] = MT-4 CC50 Assay (CellTiter Glo); format: cell-based; details: human, MT-4 cells, luminescence, read-out: CC50-MT4
Procedure: Compounds were tested in 384-well plates: 18 compounds in duplex. Compounds were diluted in 7 points, 3-fold with DMSO by Bravo. Assay plate, which contains 20 uL medium with compounds, was seeded 2000 MT-4 cells in 20 uL/well by Multi-drop to start the assay. The plate was incubated at 37° C. for 5 days. On 6th day, the CellTiter Glo 40 uL was added in each well. Luminescence was read by Victor II.

hCAI = hCAI (Homo sapiens (Human), UniProt P00915); assay: Carbonic Anhydrase (Esterase) Biochemical Assay, hCAI
Chain of hCAI (P00915 whole entry): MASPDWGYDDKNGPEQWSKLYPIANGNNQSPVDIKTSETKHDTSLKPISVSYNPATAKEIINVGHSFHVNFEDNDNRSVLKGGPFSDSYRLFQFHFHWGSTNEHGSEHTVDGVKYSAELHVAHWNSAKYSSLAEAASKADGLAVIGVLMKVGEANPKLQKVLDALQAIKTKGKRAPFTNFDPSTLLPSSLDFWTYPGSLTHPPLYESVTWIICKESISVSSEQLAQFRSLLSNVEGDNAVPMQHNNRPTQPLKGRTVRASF
Procedure: as §1, §2

[5] = read-out: EC50-HSV2-10% Human Serum
[6] = read-out: IC50-hCAII, 4-nitrophenyl acetate hydrolysis, 60 min
[7] = read-out: IC50-hCAI, 4-nitrophenyl acetate hydrolysis, 60 min

SMILES	Predicted human hepatic clearance [1]	EC50 (HSV-2 virus (MS strain) [2])	EC50 (HSV-2 virus (MS strain) [3]; [5])	EC50 (HSV-2 virus (MS strain) [3]; read-out: EC50-HSV2-FBS)	IC50 (hCAII; [6])	CC50 at 5 days [4]	IC50 (hCAI; [7])	IC50 (hCAII)	IC50 (hCAI)
NS(=O)(=O)c1cc2c(cc1F)C[C@@H](CF)N2C(=O)[C@@H]1Cc2ccc(-c3ccccn3)cc2C1 [Example 125, (S)-5-fluoro-2-(fluoromethyl)-1-((R)-5-(pyridin-2-yl)-2,3-dihydro-1H-indene-2-carbonyl)indoline-6-sulfonamide]	1.03 mL/min/kg	0.56 nM	70.2 nM	11.1 nM	–	–	–	–	–
NS(=O)(=O)c1ccc2c(c1)N(C(=O)C1Cc3ccc(-c4ncccc4F)cc3C1)CC2 (centres unmarked) [Example 76]	–	22 nM	–	107 nM	≥ 25000 nM	2500 nM	–	–	–
NS(=O)(=O)c1ccc2c(c1)N(C(=O)C1Cc3ccc(-c4cccc(F)n4)cc3C1)CC2 (centres unmarked) [Example 75]	–	14.3 nM	–	32 nM	≥ 25000 nM	–	–	–	–
NS(=O)(=O)c1cc2c(cc1F)C[C@@H](C(F)F)N2C(=O)[C@@H]1Cc2ccc(-c3ccccn3)cc2C1 [Example 128, (S)-2-(difluoromethyl)-5-fluoro-1-((R)-5-(pyridin-2-yl)-2,3-dihydro-1H-indene-2-carbonyl)indoline-6-sulfonamide]	3.5 mL/min/kg	1.4 nM	62.9 nM	8.3 nM	7420 nM	–	≥ 50000 nM	–	–
C[C@H]1c2ccc(-c3ccccn3)cc2C[C@@H]1C(=O)N1C[C@@H](C(F)(F)F)c2cc(F)c(S(N)(=O)=O)cc21 [Example 138, (S)-5-fluoro-1-((1R,2S)-1-methyl-5-(pyridin-2-yl)-2,3-dihydro-1H-indene-2-carbonyl)-3-(trifluoromethyl)indoline-6-sulfonamide]	1 mL/min/kg	2 nM	184 nM	23.4 nM	–	–	–	–	–
NS(=O)(=O)c1cc2c(cc1F)CCN2C(=O)[C@@H]1Cc2ccc(-c3ccccn3)cc2O1 [Example 65, (S)-5-fluoro-1-(6-(pyridin-2-yl)-2,3-dihydrobenzofuran-2-carbonyl)indoline-6-sulfonamide]	0.83 mL/min/kg	1.4 nM	147 nM	16 nM	–	≥ 10000 nM	–	–	–
C[C@H]1c2ccc(-c3ccccn3)cc2C[C@@H]1C(=O)N1CCc2ccc(S(N)(=O)=O)cc21 [Example 94, 1-((1R,2S)-1-methyl-5-(pyridin-2-yl)-2,3-dihydro-1H-indene-2-carbonyl)indoline-6-sulfonamide]	–	3.9 nM	195 nM	49 nM	≥ 50000 nM	≥ 50000 nM	–	–	–
C[C@@H]1Cc2ccc(S(N)(=O)=O)cc2N1C(=O)[C@@H]1Cc2ccc(-c3ccccn3)cc2C1 [Example 15]	0.933 mL/min/kg	4.9 nM	276 nM	28 nM	–	≥ 50000 nM	–	–	–
NS(=O)(=O)c1cc2c(cc1F)C[C@H](C(F)F)N2C(=O)[C@@H]1Cc2ccc(-c3ccccn3)cc2C1 [Example 127, (R)-2-(difluoromethyl)-5-fluoro-1-((R)-5-(pyridin-2-yl)-2,3-dihydro-1H-indene-2-carbonyl)indoline-6-sulfonamide]	5.67 mL/min/kg	58.3 nM	5440 nM	553 nM	2460 nM	–	4190 nM	–	–
C[C@@H]1Cc2cc(F)c(S(N)(=O)=O)cc2N1C(=O)[C@H]1Cc2cc(-c3ccccn3)ccc2O1 [Example 44]	0.83 mL/min/kg	1 nM	326 nM	14 nM	–	≥ 10000 nM	–	–	–
NS(=O)(=O)c1ccc2c(c1)N(C(=O)[C@@H]1Cc3ccc(-c4ccccn4)cc3C1)CC2 [Example 81, (R)-1-(5-(pyridin-2-yl)-2,3-dihydro-1H-indene-2-carbonyl)indoline-6-sulfonamide]	2.33 mL/min/kg	1.9 nM	≥ 25000 nM	20 nM	≥ 25000 nM	≥ 50000 nM	–	–	–
NS(=O)(=O)c1cc2c(cc1Cl)CCN2C(=O)C1Cc2ccc(-c3ccccn3)cc2C1 (centres unmarked) [Example 5]	–	10.9 nM	≥ 25000 nM	35 nM	≥ 25000 nM	–	–	–	–
NS(=O)(=O)c1ccc2c(c1)N(C(=O)C1Cc3ccc(-c4nccnc4F)cc3C1)CC2 (centres unmarked) [Example 73]	–	17.5 nM	6040 nM	129 nM	≥ 25000 nM	–	–	–	–
NS(=O)(=O)c1cc2c(cc1F)C[C@H](CF)N2C(=O)[C@@H]1Cc2ccc(-c3ccccn3)cc2C1 [Example 126, (R)-5-fluoro-2-(fluoromethyl)-1-((R)-5-(pyridin-2-yl)-2,3-dihydro-1H-indene-2-carbonyl)indoline-6-sulfonamide]	2.67 mL/min/kg	56.7 nM	≥ 10000 nM	≥ 1000 nM	–	–	–	–	–
C[C@@H]1Cc2cc(F)c(S(N)(=O)=O)cc2N1C(=O)[C@@H]1Cc2ccc(-c3ccccn3)cc2C1 [Example 35]	0.917 mL/min/kg	1.1 nM	57.5 nM	7 nM	–	24000 nM	–	–	–
C[C@H]1c2ccc(-c3ccccn3)cc2C[C@@H]1C(=O)N1CCc2cc(F)c(S(N)(=O)=O)cc21 [Example 97, 5-fluoro-1-((1R,2S)-1-methyl-5-(pyridin-2-yl)-2,3-dihydro-1H-indene-2-carbonyl)indoline-6-sulfonamide]	–	1.3 nM	56 nM	14 nM	–	≥ 50000 nM	–	≥ 50000 nM	≥ 50000 nM
NS(=O)(=O)c1ccc2c(c1)N(C(=O)C1Cc3ccc(-c4cnccn4)cc3C1)CC2 (centres unmarked) [Example 74]	–	8.3 nM	11800 nM	59 nM	≥ 25000 nM	–	–	–	–

Reference: patent publication US12522582B2 (Gilead Sciences, Inc., priority 2022, dated 2026)
